# Measured values as given in ChEMBL document CHEMBL1126361, “A mechanism-based inactivator of E. coli -hydroxydecanoyl thiolester dehydrase designed to crosslink active site amino acids” (Bioorg Med Chem Lett, 1992).
# Test system: Escherichia coli
# Assay: Evaluation of Beta decanoyl thioester dehydrase inactivation for the compound was determined as percent enzyme activity remaining
# Set-up: concentration or dose not given beside the values
row,Structure (SMILES),Activity [%]
1,CCCCCC/C=C/CC(=O)C=[N+]=[N-],100
2,CCCCCCCCCC(=O)C=[N+]=[N-],97
3,CCCCCC/C=C/CC(=O)CCl,100
4,CCCCCCCCCC(=O)CCl,99
5,CCCCCCC#CCC(=O)CCl,0
6,CCCCCCC=C=CC(=O)C=[N+]=[N-],0
7,CCCCCCC#CCC(=O)C=[N+]=[N-],0
8,CCCCCCCCCC(=O)CBr,89
